Experimental data: patent US6124269A, “2-Halo-6-O-substituted ketolide derivatives” (priority 1998, dated 2000)
≈ marks a conversion by molar mass, not a printed value. Where “and” joins values, the source holds several entries; their conditions need not be identical. Equal entries are not always repeated.

Experiments:
Type in all cases: cell-based
[1] = test system: Nocardia asteroides ATCC 9970; test: In vitro agar dilution MIC, organism code VV; conditions: Table 1B, in µg/mL (unit assumed)
Method: (§1) Representative compounds of the present invention were assayed in vitro for antibacterial activity as follows: Twelve petri dishes containing successive aqueous dilutions of the test compound mixed with 10 mL of sterilized Brain Heart Infusion (BHI) agar (Difco 0418-01-5) were prepared. Each plate was inoculated with 1:100 (or 1:10 for slow-growing strains, such as Micrococcus and Streptococcus) dilutions of up to 32 different microorganisms, using a Steers replicator block. The inoculated plates were incubated at 35-37° C. for 20 to 24 hours. In addition, a control plate, using BHI agar containing no test compound, was prepared and incubated at the beginning and end of each test.
An additional plate containing a compound having known susceptibility patterns for the organisms being tested and belonging to the same antibiotic class as the test compound was also prepared and incubated as a further control, as well as to provide test-to-test comparability. Erythromycin A was used for this purpose.
(§2) After incubation, each plate was visually inspected. The minimum inhibitory concentration (MIC) was defined as the lowest concentration of drug yielding no growth, a slight haze, or sparsely isolated colonies on the inoculum spot as compared to the growth control.

[2] = test system: Mycobacterium smegmatis ATCC 114; test: In vitro agar dilution MIC, organism code UU; conditions: Table 1B, in µg/mL (unit assumed)
Method: as §1
(§3) An additional plate containing a compound having known susceptibility patterns for the organisms being tested and belonging to the same antibiotic class as the test compound was also prepared and incubated as a further control, as well as to provide test-to-test comparability.
as §2

[3] = test system: Staphylococcus aureus CMX 553; test: In vitro agar dilution MIC, organism code FF; conditions: Table 1B, unit assumed
Method: as §1, §3, §2

[4] = test system: Staphylococcus aureus 1775; test: In vitro agar dilution MIC, organism code GG; conditions: Table 1B, unit assumed
Method: as §1, §3, §2

Escherichia coli JUHL = test: In vitro agar dilution MIC, organism code QQ; conditions: Table 1B, in µg/mL (unit assumed)
Method: as §1, §3, §2

[5] = test system: Staphylococcus aureus A5177; test: In vitro agar dilution MIC, organism code BB; conditions: in µg/mL (unit assumed)
Method: as §1, §3, §2

[6] = test system: Staphylococcus aureus ATCC 6538P; test: In vitro agar dilution MIC, organism code AA; conditions: unit assumed
Method: as §1, §3, §2

[7] = test system: Streptococcus agalactiae CMX 508; test: In vitro agar dilution MIC, organism code KK; conditions: Table 1B, unit assumed
Method: as §1, §3, §2

Escherichia coli DC-2 = test: In vitro agar dilution MIC, organism code SS; conditions: Table 1B, unit assumed
Method: as §1, §3, §2

[8] = test system: Enterococcus faecium ATCC 8043; test: In vitro agar dilution MIC, organism code II; conditions: Table 1B, unit assumed
Method: as §1, §3, §2

[9] = test system: Streptococcus pyogenes EES61; test: In vitro agar dilution MIC, organism code LL; conditions: unit assumed
Method: as §1, §3, §2

Candida albicans CCH 442 = test: In vitro agar dilution MIC, organism code TT; conditions: Table 1B, unit assumed
Method: as §1, §3, §2

Escherichia coli SS = test: In vitro agar dilution MIC, organism code RR; conditions: Table 1B, in µg/mL (unit assumed)
Method: as §1, §3, §2

[10] = test system: Streptococcus pneumoniae ATCC 6303; test: In vitro agar dilution MIC, organism code XX; conditions: unit assumed
Method: as §1, §3, §2

[11] = test system: Haemophilis influenzae DILL AMP R; test: In vitro agar dilution MIC, organism code WW; conditions: unit assumed
Method: as §1, §3, §2

[12] = test system: Staphylococcus epidermidis 3519; test: In vitro agar dilution MIC, organism code HH; conditions: Table 1B, in µg/mL (unit assumed)
Method: as §1, §3, §2

[13] = test system: Streptococcus pneumoniae GYR 1171; test: In vitro agar dilution MIC, organism code YY; conditions: Table 1B, unit assumed
Method: as §1, §3, §2

[14] = test system: Streptococcus pyogenes 930; test: In vitro agar dilution MIC, organism code MM; conditions: unit assumed
Method: as §1, §3, §2

[15] = test system: Micrococcus luteus ATCC 9341; test: In vitro agar dilution MIC, organism code OO; conditions: Table 1B, unit assumed
Method: as §1, §3, §2

[16] = test system: Streptococcus pneumoniae 5649; test: In vitro agar dilution MIC, organism code ZZA; conditions: unit assumed
Method: as §1, §3, §2

[17] = test system: Micrococcus luteus ATCC 4698; test: In vitro agar dilution MIC, organism code PP; conditions: Table 1B, in µg/mL (unit assumed)
Method: as §1, §3, §2

[18] = test system: Staphylococcus aureus CMX 642A; test: In vitro agar dilution MIC, organism code DD; conditions: Table 1B, unit assumed
Method: as §1, §3, §2

[19] = test system: Staphylococcus aureus A-5278; test: In vitro agar dilution MIC, organism code CC; conditions: unit assumed
Method: as §1, §3, §2

[20] = test system: Streptococcus bovis A-5169; test: In vitro agar dilution MIC, organism code JJ; conditions: Table 1B, unit assumed
Method: as §1, §3, §2

[21] = test system: Staphylococcus aureus NCTC10649M; test: In vitro agar dilution MIC, organism code EE; conditions: Table 1B, unit assumed
Method: as §1, §3, §2

[22] = test system: Streptococcus pyogenes PIU 2548; test: In vitro agar dilution MIC, organism code NN; conditions: unit assumed
Method: as §1, §3, §2

[23] = test system: Streptococcus pneumoniae 5979; test: In vitro agar dilution MIC, organism code ZZ; conditions: Table 1D, unit assumed
Method: as §1, §3, §2

`CC[C@H]1OC(=O)[C@H](C)[C@@H](O[C@H]2C[C@@](C)(OC)[C@@H](O)[C@H](C)O2)[C@H](C)[C@@H](O[C@@H]2O[C@H](C)C[C@H](N(C)C)[C@H]2O)[C@](C)(O)C[C@@H](C)C(=O)[C@H](C)[C@@H](O)[C@]1(C)O` [Ery. A, Erythromycin A, reference compound] was tested, and the MIC [1] was 0.1 and 0.05, the MIC [2] was 3.1 and 6.2 and the MIC [3] was 0.39 µg/mL (≈ 0.531 µM). The MIC [4] was over 100 µg/mL, the MIC (Escherichia coli JUHL) was > 100 and 50 and the MIC ([5]; Table 1B) was 3.1 and 6.2. The MIC ([6]; Table 1B) was 0.2 µg/mL (≈ 0.273 µM), the MIC [7] was 0.05 µg/mL (≈ 0.0681 µM) and the MIC (Escherichia coli DC-2) was over 100 µg/mL. The MIC [8] was 0.05 µg/mL (≈ 0.0681 µM), the MIC ([9]; Table 1B) was 0.02 µg/mL (≈ 0.0273 µM) and the MIC (Candida albicans CCH 442) was over 100 µg/mL. The MIC (Escherichia coli SS) was 0.78 and 0.39, the MIC ([10]; Table 1B) was 0.06 µg/mL (≈ 0.0818 µM) and the MIC ([11]; Table 1B) was 4 µg/mL (≈ 5.45 µM). The MIC [12] was 0.39 and 0.2, the MIC [13] was 0.06 µg/mL (≈ 0.0818 µM) and the MIC ([14]; Table 1B) was over 100 µg/mL. The MIC [15] was 0.02 µg/mL (≈ 0.0273 µM), the MIC ([16]; Table 1B) was 16 µg/mL (≈ 21.8 µM) and the MIC [17] was 0.2 and 0.39. For the same compound, the MIC [18] was 0.39 µg/mL (≈ 0.531 µM), the MIC ([19]; Table 1B) was over 100 µg/mL and the MIC [20] was 0.02 µg/mL (≈ 0.0273 µM). It also gave an MIC [21] of 0.39 µg/mL (≈ 0.531 µM).
For `CC[C@H]1OC(=O)C(C)(F)C(=O)[C@H](C)[C@@H](O[C@@H]2O[C@H](C)C[C@H](N(C)C)[C@H]2O)[C@](C)(OC)C[C@@H](C)C2=NCCN3C(=O)O[C@@]1(C)[C@H]3[C@H]2C` (stereo partly drawn) [Example 1], the MIC [1] was 0.05, the MIC [2] was 0.2 and the MIC [3] was 0.1 µg/mL (≈ 0.152 µM). For the same compound, the MIC ([22]; Table 1B) was 0.2 µg/mL (≈ 0.305 µM), the MIC ([22]; Table 1C) was 0.5 µg/mL (≈ 0.762 µM) and the MIC [4] was over 100 µg/mL. It also gave an MIC (Escherichia coli JUHL) of over 50, an MIC ([5]; Table 1B) of 0.1 and an MIC ([5]; Table 1C) of 0.1. The MIC ([6]; Table 1B) was 0.1 µg/mL (≈ 0.152 µM), the MIC ([6]; Table 1C) was 0.1 µg/mL (≈ 0.152 µM) and the MIC [7] was 0.02 µg/mL (≈ 0.0305 µM). It also gave an MIC (Escherichia coli DC-2) of 25 µg/mL (≈ 38.1 µM), an MIC [8] of 0.05 µg/mL (≈ 0.0762 µM) and an MIC ([9]; Table 1B) of 0.01 µg/mL (≈ 0.0152 µM). It also gave an MIC ([9]; Table 1C) of 0.03 µg/mL (≈ 0.0457 µM), an MIC (Candida albicans CCH 442) of over 100 µg/mL and an MIC (Escherichia coli SS) of 0.2. For the same compound, the MIC ([10]; Table 1B) was 0.03 µg/mL (≈ 0.0457 µM), the MIC ([10]; Table 1C) was 0.03 µg/mL (≈ 0.0457 µM) and the MIC ([11]; Table 1B) was 2 µg/mL (≈ 3.05 µM). It also gave an MIC ([11]; Table 1C) of 2 µg/mL (≈ 3.05 µM), an MIC [12] of 0.2 and an MIC [13] of 0.03 µg/mL (≈ 0.0457 µM). For the same compound, the MIC ([14]; Table 1B) was over 100 µg/mL, the MIC ([14]; Table 1C) was over 128 µg/mL and the MIC [15] was 0.02 µg/mL (≈ 0.0305 µM). For the same compound, the MIC ([16]; Table 1B) was 0.5 µg/mL (≈ 0.762 µM), the MIC ([16]; Table 1C) was 0.5 µg/mL (≈ 0.762 µM) and the MIC [17] was 0.2. The MIC [18] was 0.1 µg/mL (≈ 0.152 µM), the MIC ([19]; Table 1B) was over 100 µg/mL and the MIC ([19]; Table 1C) was over 100 µg/mL. The MIC [20] was 0.01 µg/mL (≈ 0.0152 µM) and the MIC [21] was 0.2 µg/mL (≈ 0.305 µM).
For `CC[C@H]1OC(=O)[C@H](C)C(=O)[C@H](C)[C@@H](O[C@@H]2O[C@H](C)C[C@H](N(C)C)[C@H]2O)[C@](C)(OC/C=C/c2cnc3ccccc3c2)C[C@@H](C)C(=O)[C@H](C)[C@H]2NC(=O)O[C@@]21C` [Standard A, reference compound], the MIC ([22]; Table 1D) was 0.25 µg/mL (≈ 0.326 µM), the MIC [23] was 16 µg/mL (≈ 20.9 µM) and the MIC ([9]; Table 1D) was 0.03 µg/mL (≈ 0.0392 µM). The MIC ([10]; Table 1D) was 0.03 µg/mL (≈ 0.0392 µM), the MIC ([11]; Table 1D) was 2 µg/mL (≈ 2.61 µM) and the MIC ([14]; Table 1D) was 1 µg/mL (≈ 1.31 µM). It also gave an MIC ([16]; Table 1D) of 0.25 µg/mL (≈ 0.326 µM).
`CC[C@H]1OC(=O)[C@H](C)C(=O)[C@H](C)[C@@H](O[C@@H]2O[C@H](C)C[C@H](N(C)C)[C@H]2O)[C@](C)(OC/C=C/c2ccc3nccnc3c2)C[C@@H](C)C(=O)[C@H](C)[C@H]2NC(=O)O[C@@]21C` [Standard C, reference compound] gave an MIC ([22]; Table 1D) of 0.25 µg/mL (≈ 0.326 µM), an MIC [23] of 64 µg/mL (≈ 83.4 µM) and an MIC ([9]; Table 1D) of 0.03 µg/mL (≈ 0.0391 µM). It also gave an MIC ([10]; Table 1D) of 0.015 µg/mL (≈ 0.0196 µM), an MIC ([11]; Table 1D) of 2 µg/mL (≈ 2.61 µM) and an MIC ([14]; Table 1D) of 1 µg/mL (≈ 1.3 µM). For the same compound, the MIC ([16]; Table 1D) was 0.5 µg/mL (≈ 0.652 µM).
With `CC[C@H]1OC(=O)[C@H](C)C(=O)[C@H](C)[C@@H](O[C@@H]2O[C@H](C)C[C@H](N(C)C)[C@H]2O)[C@](C)(OC/C=C/c2ccccc2)C[C@@H](C)C(=O)[C@H](C)[C@H]2NC(=O)O[C@@]21C` [Standard B, reference compound] the MIC ([22]; Table 1D) was 0.25 µg/mL (≈ 0.35 µM), the MIC [23] was 128 µg/mL (≈ 179 µM) and the MIC ([9]; Table 1D) was 0.03 µg/mL (≈ 0.042 µM). For the same compound, the MIC ([10]; Table 1D) was 0.03 µg/mL (≈ 0.042 µM), the MIC ([11]; Table 1D) was 4 µg/mL (≈ 5.6 µM) and the MIC ([14]; Table 1D) was 64 µg/mL (≈ 89.5 µM). It also gave an MIC ([16]; Table 1D) of 0.25 µg/mL (≈ 0.35 µM).
